Data: US20140242609A1, “Diagnosis and treatment of kidney stones, methods and compositions therefor” (Washington University, priority 2013, published 2014)
Where “and” joins values, the source holds several entries; their conditions need not be identical. Equal values may be shown once. Entries after “also recorded” stand apart in the source; their conditions may differ.

Experiments:
miR-9-1 promoter = test: ChIP over miR-9-1 promoter in TALH cells of treated mice; format: in vivo, mouse; conditions: for fold enrichment of NFATc1 over miR-9-1 promoter region: versus vehicle
Experimental: (§1) Freshly isolated TALH cells or primary TALH cell cultures were cross-linked in 1% paraformaldehyde (pH7.0) for 10 min at room temperature. The cross-linked cells were lysed following to instruction of MAGnify ChIP system (Invitrogen). Chromatin was sonicated into 500 bp fragments with Bioruptor UCD-200 (High power, 15 cycles of 30 seconds ON, 30 seconds OFF; Diagenode). Sheared chromatin was precipitated with antibody-bound Dynabeads (Invitrogen). Following reverse crosslink and DNA extraction, antibody-bound DNA was eluted and analyzed with real-time PCR. Two criteria for normalization were applied: fold enrichment over anti-IgG background signal and input control over chromatin input signal.
as §1, with “OFF,” for “OFF;”

claudin-14 mRNA = claudin-14 mRNA levels in mouse kidney after systemic treatment (real-time PCR); format: in vivo; conditions: for claudin-14 mRNA, change: 30 mg/kg BW−1 per day for 6 days, 24 hrs following the last treatment; for claudin-14 mRNA relative to control level: by 8 hrs and through to 12 hrs
Experimental: NPS2143 and cinacalcet (Table 1) were dissolved in vehicle—20% (w/v) (2-Hydroxypropyl)-β-cyclodextrin solution and fed to mice with gavage syringe. Cyclosporin-A (Sandimmune; Table 1) was diluted in 0.9% saline and I.P. injected to animals. Control animals received vehicle injection (13% wiv Cremophor EL and 32.9% ethanol). For dietary Ca^2+ manipulation, animals were fed with the following diets for six consecutive days: basal diet: 0.61% Ca^2+ (TestDiet #5755); low Ca^2+ diet: 0 Ca^++ (TestDiet #5855); high Ca^2+ diet: 5% Ca^2+ (TestDiet #5AVB). All animals had free access to water and were housed under a 12 hr light cycle. Blood samples were taken by cardiac puncture rapidly after initiation of terminal anesthesia and centrifuged at 4° C. for 10 min. Kidney were dissected out and immediately frozen at −80° C.
(§2) Total RNA including microRNA was extracted using Trizol (Invitrogen). Cellular mRNA was reverse transcribed using the Superscript-III kit (Invitrogen), followed by real-time PCR amplification using SYBR Green PCR Master Mix (Bio-Rad) and Eppendorf Realplex2S system. The design of claudin-14 primers was described above. The design of pri-miRNA primers was according to Ma et al., (2010). Results were expressed as 2^−ΔCt values with ΔCT=Ctgene−Ctβ-actin.
SAHA and TsA were dissolved in 5% (w/v) ethanol/0.9% saline solution and fed to mice with gavage syringe. Furosemide was dissolved in 50% (w/v) DMSO/0.9% saline solution and I.P. injected to animals. All animals had free access to water and were housed under a 12 hr light cycle. Blood samples were taken by cardiac puncture rapidly after initiation of terminal anesthesia and centrifuged at 4° C. for 10 min. Kidney were dissected out and immediately frozen at −80° C.
Total RNA including microRNA was extracted using Trizol (Invitrogen). Cellular mRNA was reverse transcribed using the Superscript-III kit (Invitrogen), followed by real-time PCR amplification using SYBR Green PCR Master Mix (Bio-Rad) and Eppendorf Realplex2S system. The design of claudin-14 primers was described before by Gong et al., 2012. The design of pri-miRNA primers and ChIP primers was according to Gong et al., 2013. Results were expressed as 2^−ΔCt values with ΔCT=Ctgene−Ctβ-actin. […]
NPS2143 and cinacalcet (Table 9) were dissolved in vehicle −20% (w/v) (2-Hydroxypropyl)-β-cyclodextrin solution and fed to mice with gavage syringe. Cyclosporin-A (Sandimmune; Table 9) was diluted in 0.9% saline and I.P. injected to animals. Control animals received CNI vehicle injection (13% wiv Cremophor EL and 32.9% ethanol). FK506 was dissolved in CNI vehicle, diluted in 0.9% saline and I.P. injected to animals. For dietary Ca^+ manipulation, animals were fed with the following diets for six consecutive days: basal diet: 0.610% Ca^++ (TestDiet #5755); low Ca^++ diet: 0 Ca^++ (TestDiet #5855); high Ca^++ diet: 5% Ca^+ (TestDiet #5AVB). All animals had free access to water and were housed under a 12 hr light cycle. Blood samples were taken by cardiac puncture rapidly after initiation of terminal anesthesia and centrifuged at 4° C. for 10 min. Kidney were dissected out and immediately frozen at −80° C.
(§3) Total RNA including microRNA was extracted using Trizol (Invitrogen). Cellular mRNA was reverse transcribed using the Superscript-III kit (Invitrogen), followed by real-time PCR amplification using SYBR Green PCR Master Mix (Bio-Rad) and Eppendorf Realplex2S system. The design of claudin-14 primers was described before by Gong. Y., et al., 2012. The design of pri-miRNA primers was according to Ma. L., et al., 2010. Results were expressed as 2^−ΔCt values with ΔCT=Ctgene−Ctβ-actin.

pri-miR-9-1 = pri-miR-9-1 transcript levels in TALH of treated mouse kidneys (real-time PCR); format: in vivo; conditions: for changes in pri-miR-9-1 levels: by 8 hrs
Text: as §2
To measure the transcriptional level for microRNA gene in vivo in the kidney, the inventors designed primers (see Methods; Table 2) to amplify the pri-miRNA molecule, the original transcript for microRNA gene that had not yet been subjected to any nuclear or cellular processing. Because both miR-9 and miR-374 had broader localization profiles along the nephron, the inventors isolated the TALH tubular cells for pri-miRNA analyses from the mouse kidney described elsewhere in this study. WT mice (strain: C57BL/6) were treated with NPS2143 or cinacalcet as described for claudin-14 analyses and assayed for pri-miRNA levels in isolated TALH cells at 2 hrs and 8 hrs respectively. […] NPS2143 and cinacalcet also profoundly regulated pri-miR-374. […] The expression levels of miR-9-1 and miR-374 genes were both inversely correlated with that of claudin-14 gene in the kidney, compatible with the silencing role of microRNA in regulating its target gene.
Total RNA including microRNA was extracted using Trizol (Invitrogen). Cellular mRNA was reverse transcribed using the Superscript-III kit (Invitrogen), followed by real-time PCR amplification using SYBR Green PCR Master Mix (Bio-Rad) and Eppendorf Realplex2S system. The design of claudin-14 primers was described before by Gong et al., 2012. The design of pri-miRNA primers and ChIP primers was according to Gong et al., 2013. Results were expressed as 2^−ΔCt values with ΔCT=Ctgene−Ctβ-actin.
as §3

[1] = TPTX mice, single dose 30 mg/kg BW−1, 2 hrs
[2] = cyclosporine-A pre-treated animals, 30 mg/kg BW−1, 2 hrs
[3] = second dose 30 mg/kg BW−1 at 12 hrs, measured at 14 hrs
[4] = single oral dose 30 mg/kg BW−1, 30 mg/kg

**Q.** Which results are given for `CC(C)(Cc1ccc2ccccc2c1)NC[C@@H](O)COc1cccc(Cl)c1C#N` [NPS2143]?
**A.** H3K9 and H3K14 acetylation levels, miR-9-1 promoter region (miR-9-1 promoter; 30 mg/kg BW−1, 2 hrs, higher than vehicle level): 2.43 fold; fold enrichment of NFATc1 over miR-9-1 promoter region (miR-9-1 promoter; 30 mg/kg BW−1, 2 hrs): 3.55 fold; claudin-14 mRNA levels, reduction (dose response) (claudin-14 mRNA; 15 mg/kg BW−1, 2 hrs): 45%; claudin-14 mRNA levels, reduction (dose response) (claudin-14 mRNA; 30 mg/kg BW−1, 2 hrs): 82%; claudin-14 mRNA, change (claudin-14 mRNA): Neither NPS2143 nor cinacalcet caused changes; claudin-14 mRNA levels, reduction (dose response) (claudin-14 mRNA; 45 mg/kg BW−1, 2 hrs): 89%; claudin-14 gene expression, downregulation (claudin-14 mRNA; [1]): 35%; claudin-14 mRNA levels, change (claudin-14 mRNA; [2]): failed to elicit any significant change; claudin-14 mRNA levels, reduction (claudin-14 mRNA; [3]): 77%; claudin-14 mRNA level, downregulation (claudin-14 mRNA; single oral dose 30 mg/kg BW−1, 2 hrs, versus vehicle): 80%; claudin-14 mRNA, percent of control level (claudin-14 mRNA; single oral dose 30 mg/kg BW−1, 4 hrs): 78%; claudin-14 mRNA relative to control level (claudin-14 mRNA; [4]): completely recovered to its control level; also recorded: no significant change; changes in pri-miR-9-1 levels (pri-miR-9-1; 30 mg/kg BW−1): dissipated completely; pri-miR-9-1 level, increase (pri-miR-9-1; TPTX mice, 30 mg/kg BW−1): 19%; pri-miR-9-1 mRNA levels, change (pri-miR-9-1; [2]): failed to elicit any significant change; pri-miR-9-1 transcript level, increase (pri-miR-9-1; single-dose 30 mg/kg BW−1, 2 hrs): 7.65 fold

**Q.** Which results are given for `O=C(CCCCCCC(=O)Nc1ccccc1)NO` [SAHA, Suberanilohydroxamic acid]?
**A.** H3K9 and H3K14 acetylation, miR-9-1 promoter, increase (miR-9-1 promoter; 25 mg/kg BW−1, 4 hrs): 2.40 fold; NFAT binding to miR-9-1 promoter (miR-9-1 promoter; 25 mg/kg BW−1, 4 hrs): not affected; CLDN14 mRNA, dose response (claudin-14 mRNA; 5 mg/kg to 25 mg/kg, 4 hrs): downregulation of CLDN14 at dosage as low as 5 mg/kg; effects on CLDN14 mRNA in the kidney (claudin-14 mRNA; 25 mg/kg BW−1, 12 hrs): dissipated; reduction of CLDN14 expression in the kidney (claudin-14 mRNA; 25 mg/kg BW−1, by 4 hrs and through to at least 8 hrs): persisted; CLDN14 mRNA levels in the kidney, reduction (claudin-14 mRNA; single dose 25 mg/kg BW−1, 2 hrs): 56%; transcriptional levels of miR-9-1 gene (pri-miR-9-1), increase (pri-miR-9-1; 25 mg/kg BW−1, 4 hrs): 1.49 fold

**Q.** What does the source list for `C[C@@H](NCCCc1cccc(C(F)(F)F)c1)c1cccc2ccccc12` [cinacalcet]?
**A.** fold enrichment of NFATc1 over miR-9-1 promoter region (miR-9-1 promoter; 30 mg/kg BW−1, 2 hrs): without significant effect; claudin-14 expression, induction (dose response) (claudin-14 mRNA; 15 mg/kg BW−1, 2 hrs): 2.33 fold; claudin-14 expression, induction (dose response) (claudin-14 mRNA; 30 mg/kg BW−1, 2 hrs): 3.17 fold; claudin-14 mRNA, change (claudin-14 mRNA): Neither NPS2143 nor cinacalcet caused changes; claudin-14 expression, induction (dose response) (claudin-14 mRNA; 45 mg/kg BW−1, 2 hrs): 6.38 fold; claudin-14 expression levels, upregulation (claudin-14 mRNA; [1]): 3.41 fold; claudin-14 mRNA levels, increase (claudin-14 mRNA; [2]): 1.73 fold; claudin-14 mRNA levels, increase (claudin-14 mRNA; [3]): 3.23 fold; claudin-14 mRNA level, upregulation (claudin-14 mRNA; single oral dose 30 mg/kg BW−1, 2 hrs, intact mice, versus vehicle): 3.3 fold; claudin-14 mRNA level, upregulation (ceiling) (claudin-14 mRNA; single oral dose 30 mg/kg BW−1, 4 hrs, versus vehicle, 30 mg/kg): 3.97 fold and 3.98 fold; claudin-14 mRNA relative to control level (claudin-14 mRNA; [4]): recovered to its control level; also recorded: no significant change; pri-miR-9-1 transcript level, decrease (pri-miR-9-1; 30 mg/kg BW−1, 2 hrs): 88%; changes in pri-miR-9-1 levels (pri-miR-9-1; 30 mg/kg BW−1): dissipated completely; pri-miR-9-1 level, reduction (pri-miR-9-1; TPTX mice, 30 mg/kg BW−1, 2 hrs): 55%; pri-miR-9-1 mRNA levels, decrease (pri-miR-9-1; [2]): 34%
